Assay results published in patent US20090018212A1, “METHODS OF RELIEVING STRESS” (Neuroscent Pty Ltd., priority 2005, published 2009).

Experiments:
[1] = test system: sympathetic neurotransmission; assay: Sympathetic neurotransmission in isolated vasa differentia after chronic stress of social deprivation and predator exposure; assay type: in vivo; conditions: mice, social deprivation and presence of predators 10 to 12 days; odour diluted in triethyl citrate
Experimental: The effects of odours on experimental animals exposed to stressors that cause chronic stress was assessed. Mice were divided into two groups, a control group exposed to minimal stress and a group exposed to severe stress by concurrent isolation and exposure to a predator. Each group was divided into sub-groups, one not exposed to any odour (control), one exposed to triethyl citrate vehicle (control), and the other groups exposed to an odour or a mixture of odours selected from cis-2-hexen-1-ol, trans-3-hexen-1-ol, trans-2-hexen-1-ol, cis-3-hexen-1-ol, trans-2-hexenal and α-pinene. Each odour compound was diluted (0.01 to 0.05% volume) with triethyl citrate. The solutions (0.5 mL) were placed on filter paper strips and placed within 30 cm of the animal cage. The response to stress was assessed using any or a combination of telemetry measurements, post-mortem electrophysiological studies and biochemical assays of blood samples.
Isolated vasa differentia were used to assess the effects of prolonged exposure to stress and its attenuation by odours. Following exposure of the mice to one of the stressors with or without odour, the level of neurotransmission from sympathetic varicosities was examined using standard focal extracellular recording methods (Lavidis and Bennett, 1992, 1993a, 1993b; D'Arbe et al., 2002). […] The extent of the increase reflects the level of stress the animal was exposed to during the previous 6-14 days (D'Arbe et al., 1999, D'Arbe et al., 2002).
Mice were exposed to two stressors concurrently, social deprivation and the presence of predators (rats in separate cages) for 10 to 12 days with or without the following odours or combination of odours, cis-2-hexen-1-ol, trans-2-hexen-1-ol, trans-3-hexen-1-ol, trans-2-hexenal, cis-3-hexen-1-ol, α-pinene and a combination of cis-3-hexen-1-ol and trans-2-hexenal. Two controls were used: mice not exposed to stress and mice exposed to stress together with triethyl citrate vehicle. The mice were monitored for up to 4 days after the stressors were removed.
Mice were placed in cages with one mouse per cage (social deprivation) in a room that contained cages with rats (predators) without odours (control). […] Box plots of the excitatory junction currents (EJC) obtained by electrophysiological methods are shown in FIG. 2 (control) and FIG. 3 (treated) and indicate the maximum EJC amplitude (Max), the distribution of 3rd quartiles (Q3), the median, the distribution of the 1st quartiles (Q1) and the distribution of the means. The data is from 16 animals from each treatment with at least 40 recording sites.

[2] = test system: smooth muscle of mouse vas deferens; assay: Organ bath safety test: success rate of transmission after application of the chemicals; assay type: cell-based; conditions: 1.0% vol; for function of smooth muscle (success rate of transmission): evaluated over 40 minutes
Experimental: Safety data for the components of the combination of the invention have been obtained by applying the chemicals to smooth muscle in organ bath experiments. The mouse vas deferens was isolated and placed in an electrophysiological organ bath. Extracellular recording of transmitter release from sympathetic varicosities was recorded before and after both application of each of the chemicals CH, TH or ap. The effect (“success rate”) of each of the chemicals was evaluated over 40 minutes. Success rate was measured as (number of successful transmissions/number of nerve stimulations)×100. Following this measurement, the chemicals were washed out.

rats = conditions: cited from earlier work
humans = conditions: cited from earlier work

SMILES	effectiveness of the odour or odour combination from most effective to least effective (mean excitatory junction potentials, FIG. 1) [1]	function of smooth muscle (success rate of transmission) [2]	resting period (rats)	hypnotic effect (humans)	effect on the smooth muscle at the high concentration used [2]
CC1=CCC2CC1C2(C)C (stereo not drawn) [α-pinene]	α-pinene>cis-2-hexen-1-ol	did not significantly affect	prolong the resting period	hypnotic effect	–
CCC/C=C\CO [cis-2-hexen-1-ol, reference compound]	cis-2-hexen-1-ol>trans-3-hexen-1-ol	–	–	–	–
CCC/C=C/C=O [trans-2-hexenal]	trans-2-hexenal>α-pinene	did not significantly affect	–	–	relaxed smooth muscle cells
CCC/C=C/CO [trans-2-hexen-1-ol, reference compound]	least effective	–	–	–	–
CC/C=C/CCO [trans-3-hexen-1-ol, reference compound]	trans-3-hexen-1-ol>trans-2-hexen-1-ol	–	–	–	–
CC/C=C\CCO [cis-3-hexen-1-ol]	cis-3-hexen-1-ol>trans-2-hexenal	did not significantly affect	–	–	–
